What follows are molecules tested against Mcl-1 (Homo sapiens (Human), UniProt Q07820) (assay: Fluorescence polarization anisotropy (FPA) competition assay, FITC-Bak or FITC-Bim BH3 peptide). Conditions: read-out: Ki for Inhibition of Mcl-1 by FPA assay.
Sequence of Mcl-1 (Q07820 172-327): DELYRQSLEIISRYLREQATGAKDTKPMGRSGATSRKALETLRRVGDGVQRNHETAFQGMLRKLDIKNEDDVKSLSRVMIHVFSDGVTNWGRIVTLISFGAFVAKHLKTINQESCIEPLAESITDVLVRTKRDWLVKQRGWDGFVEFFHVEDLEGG
Type: binding
`CCN1C(=O)COc2cc(C(=O)O)cc(N3C[C@@H](C)n4c(c(CCCOc5cc(C)c(Cl)c(C)c5)c5ccc(Cl)c(-c6c(C)nn(C)c6C)c54)C3=O)c21` [Example 90, (R)-5-(7-chloro-10-(3-(4-chloro-3,5-dimethylphenoxy)propyl)-4-methyl-1-oxo-6-(1,3,5-trimethyl-1H-pyrazol-4-yl)-3,4-dihydropyrazino[1,2-a]indol-2(1H)-yl)-4-ethyl-3-oxo-3,4-dihydro-2H-benzo[b][1,4]oxazine-7-carboxylic acid] showed a Ki of 8.7 nM.
Work on `Cc1cc(CCCCc2c(C(=O)N3CCN(c4cncc(C(=O)O)c4)CC3)[nH]c3c(-c4c(C)nn(C)c4C)c(Cl)ccc23)cc(C)c1Cl` [Example 740, 5-(4-(6-Chloro-3-(4-(4-chloro-3,5-dimethylphenyl)butyl)-7-(1,3,5-trimethyl-1H-pyrazol-4-yl)-1H-indole-2-carbonyl)piperazin-1-yl)nicotinic acid] yielded a Ki of 85 nM.
In the case of `Cc1cc(OCCCc2c(C(=O)N3CCN(c4cncc(C(=O)O)c4)CC3)n(Cc3cccnc3)c3c(-c4c(C)nn(C)c4C)c(Cl)ccc23)cc(C)c1Cl` [Example 734, 5-(4-(6-chloro-3-(3-(4-chloro-3,5-dimethylphenoxy)propyl)-1-(pyridin-3-ylmethyl)-7-(1,3,5-trimethyl-1H-pyrazol-4-yl)-1H-indole-2-carbonyl)piperazin-1-yl)nicotinic acid], the Ki is reported as > 200 nM.
Molecule `Cc1nn(C)c(C)c1-c1c(Cl)ccc2c(CCCOCC3CC3)c3n(c12)[C@H](C)CN(c1cn(C)c2ccc(C(=O)O)cc12)C3=O` [Example 404, (R)-3-(7-chloro-10-(3-(cyclopropylmethoxy)propyl)-4-methyl-1-oxo-6-(1,3,5-trimethyl-1H-pyrazol-4-yl)-3,4-dihydropyrazino[1,2-a]indol-2(1H)-yl)-1-methyl-1H-indole-5-carboxylic acid] has a Ki of 44 nM.
In the case of `Cc1cc(OCCCc2c3n(c4c(-c5c(C)nn(C)c5C)c(Cl)ccc24)CCCN(c2cc4c(c(C(=O)O)c2)OCC4)C3=O)cc(C)c1Cl` [Example 18, 5-[8-chloro-11-[3-(4-chloro-3,5-dimethyl-phenoxy)propyl]-1-oxo-7-(1,3,5-trimethylpyrazol-4-yl)-4,5-dihydro-3H-[1,4]diazepino[1,2-a]indol-2-yl]-2,3-dihydrobenzofuran-7-carboxylic acid], the Ki is reported as 5.8 nM.
`Cc1cc(OCCCc2c3n(c4c(-c5c(C)cccc5C)c(Cl)ccc24)CCCN(c2cc(C(=O)O)c4ccn(C)c4c2)C3=O)cc(C)c1Cl` [Example 91, 6-[8-Chloro-11-[3-(4-chloro-3,5-dimethyl-phenoxy)propyl]-7-(2,6-dimethylphenyl)-1-oxo-4,5-dihydro-3H-[1,4]diazepino[1,2-a]indol-2-yl]-1-methyl-indole-4-carboxylic acid] was tested, and the Ki was 7.3 nM.
In the case of `CC[C@@H]1Cn2c(c(CCCOc3cc(C)c(Cl)c(C)c3)c3ccc(Cl)c(-c4c(C)nn(C)c4C)c32)C(=O)N1` [Example 24, (R)-7-chloro-10-(3-(4-chloro-3,5-dimethylphenoxy)propyl)-3-ethyl-6-(1,3,5-trimethyl-1H-pyrazol-4-yl)-3,4-dihydropyrazino[1,2-a]indol-1(2H)-one], the Ki is reported as 25 nM.
`Cc1cc(OCCCc2c3n(c4c(-c5c(C)nn(C)c5C)c(Cl)ccc24)[C@H](C)CN(c2cccc4cc(C(=O)O)n(CC5CCN(C)C5)c24)C3=O)cc(C)c1Cl` (stereo partly drawn) [Example 320, 7-((R)-7-Chloro-10-(3-(4-chloro-3,5-dimethylphenoxy)propyl)-4-methyl-1-oxo-6-(1,3,5-trimethyl-1H-pyrazol-4-yl)-3,4-dihydropyrazino[1,2-a]indol-2(1H)-yl)-1-((1-methylpyrrolidin-3-yl)methyl)-1H-indole-2-carboxylic acid] showed a Ki of 2.7 nM.
Work on `Cc1cc(OCCCc2c(C(=O)N3CCC(C(=O)O)C3)[nH]c3c(-c4c(C)ncnc4C)c(Cl)ccc23)cc(C)c1Cl` (centres unmarked) [Example 745, 1-[6-Chloro-3-[3-(4-chloro-3,5-dimethyl-phenoxy)propyl]-7-(4,6-dimethylpyrimidin-5-yl)-1H-indole-2-carbonyl]pyrrolidine-3-carboxylic acid] yielded a Ki of 44 nM.
Molecule `Cc1cc(OCCCc2c3n(c4c(-c5c(C)nn(C)c5C)c(Cl)ccc24)CCCN(c2cc(C(=O)O)c4c(cnn4C)c2)C3=O)cc(C)c1Cl` [Example 85, 5-[8-Chloro-11-[3-(4-chloro-3,5-dimethyl-phenoxy)propyl]-1-oxo-7-(1,3,5-trimethylpyrazol-4-yl)-4,5-dihydro-3H-[1,4]diazepino[1,2-a]indol-2-yl]-1-methyl-indazole-7-carboxylic acid] has a Ki of 1.5 nM.
For `CC(=O)N1CCN(c2cc(C(=O)O)cc(CN3CCCn4c(c(CCCOc5cc(C)c(Cl)c(C)c5)c5ccc(Cl)c(-c6c(C)nn(C)c6C)c54)C3=O)n2)CC1` [Example 17, 2-(4-acetylpiperazin-1-yl)-6-((8-chloro-11-(3-(4-chloro-3,5-dimethylphenoxy)propyl)-1-oxo-7-(1,3,5-trimethyl-1H-pyrazol-4-yl)-4,5-dihydro-1H-[1,4]diazepino[1,2-a]indol-2(3H)-yl)methyl)isonicotinic acid], the Ki was 10 nM.
`Cc1cc(OCCCc2c3n(c4c(-c5c(C)nn(C)c5C)c(Cl)ccc24)CCCN(Cc2cc(C(=O)O)cc(N4CCN(C(=O)OC(C)(C)C)CC4)n2)C3=O)cc(C)c1Cl` [Example 8, 2-(4-(Tert-butoxycarbonyl)piperazin-1-yl)-6-((8-chloro-11-(3-(4-chloro-3,5-dimethylphenoxy)propyl)-1-oxo-7-(1,3,5-trimethyl-1H-pyrazol-4-yl)-4,5-dihydro-1H-[1,4]diazepino[1,2-a]indol-2(3H)-yl)methyl)isonicotinic acid] was tested, and the Ki was 27 nM.
`Cc1cc(OCCCc2c(C(=O)N(C)c3ccc(C(=O)O)cc3)n(CCN3CCOCC3)c3c(-c4c(C)nn(C)c4C)c(Cl)ccc23)cc(C)c1Cl` [Example 731, 4-[[6-Chloro-3-[3-(4-chloro-3,5-dimethyl-phenoxy)propyl]-1-(2-morpholinoethyl)-7-(1,3,5-trimethylpyrazol-4-yl)indole-2-carbonyl]-methyl-amino]benzoic acid] was tested, and the Ki was > 200 nM.
Molecule `Cc1cc(OCCCc2c3n(c4c(-c5c(C)nn(C)c5C)c(Cl)ccc24)[C@H](C)CN(c2cn(C)c4ccc(C(F)(F)F)cc24)C3=O)cc(C)c1Cl` (single isomer, unassigned) [Example 200] has a Ki of 6.6 nM.
With `Cc1cc(OCCCc2c3n(c4c(-c5c(C)nn(C)c5C)c(Cl)ccc24)[C@H](C)CN(c2cccc4c2c(C(=O)O)nn4C)C3=O)cc(C)c1Cl` [Example 127, 4-[(4R)-7-chloro-10-[3-(4-chloro-3,5-dimethyl-phenoxy)propyl]-4-methyl-1-oxo-6-(1,3,5-trimethylpyrazol-4-yl)-3,4-dihydropyrazino[1,2-a]indol-2-yl]-1-methyl-indazole-3-carboxylic acid] the Ki was < 1 nM.
With `Cc1cc(OCCCc2c3n(c4c(-c5c(C)nn(C)c5C)c(Cl)ccc24)CCCN(c2cc4c(c(C(=O)O)c2)OCCO4)C3=O)cc(C)c1Cl` [Example 25, 7-(8-Chloro-11-(3-(4-chloro-3,5-dimethylphenoxy)propyl)-1-oxo-7-(1,3,5-trimethyl-1H-pyrazol-4-yl)-4,5-dihydro-1H-[1,4]diazepino[1,2-a]indol-2(3H)-yl)-2,3-dihydrobenzo[b][1,4]dioxine-5-carboxylic acid] the Ki was 1.1 nM.
`COC(=O)c1cc2c(c(N3CCCn4c(c(CCCOc5cc(C)c(Cl)c(C)c5)c5ccc(Cl)c(-c6c(C)nn(C)c6C)c54)C3=O)c1)OCCO2` [Example 60, Methyl 8-(8-chloro-11-(3-(4-chloro-3,5-dimethylphenoxy)propyl)-1-oxo-7-(1,3,5-trimethyl-1H-pyrazol-4-yl)-4,5-dihydro-1H-[1,4]diazepino[1,2-a]indol-2(3H)-yl)-2,3-dihydrobenzo[b][1,4]dioxine-6-carboxylate] was tested, and the Ki was < 1 nM.
Work on `Cc1cc(OCCCc2c3n(c4c(-c5c(C)nn(C)c5C)c(Cl)ccc24)[C@H](C)CN(c2cn(C)c4cc(C(F)(F)F)ccc24)C3=O)cc(C)c1Cl` [Example 199, (4R)-7-chloro-10-[3-(4-chloro-3,5-dimethyl-phenoxy)propyl]-4-methyl-2-[1-methyl-6-(trifluoromethyl)indol-3-yl]-6-(1,3,5-trimethylpyrazol-4-yl)-3,4-dihydropyrazino[1,2-a]indol-1-one] yielded a Ki of 12 nM.
`Cc1cc(OCCCc2c3n(c4c(-c5c(C)nn(C)c5C)c(Cl)ccc24)CCCN(Cc2cc(C(=O)O)cc(N4CCNCC4)n2)C3=O)cc(C)c1Cl` [Example 10, 2-((8-Chloro-11-(3-(4-chloro-3,5-dimethylphenoxy)propyl)-1-oxo-7-(1,3,5-trimethyl-1H-pyrazol-4-yl)-4,5-dihydro-1H-[1,4]diazepino[1,2-a]indol-2(3H)-yl)methyl)-6-(piperazin-1-yl)isonicotinic acid] showed a Ki of 57 nM.

Each molecule was assayed on H929 human cancer cell lines (assay: Cellular viability / proliferation (Cell TiterGlo, 72 h)). Conditions: H929 cells, 72 h, Cell TiterGlo, 10% FBS; read-out: GI50 on cellular proliferation of H929 human cancer cell lines.
Type: cell-based
Experimental: Cellular Viability of Human Tumor Cell Lines
To evaluate compound effect on cellular proliferation, cells were plated at 1,000 cells/well in 96-well tissue culture plates in a total volume of 90 μL medium supplemented with 10% FBS (Sigma, Saint Louis, Mo.). 24 hours later, 10 μL of compound (in a 2-fold serial dilution) is added to the cells for a top concentration of 50 μM and a final DMSO concentration <1%. After 72 hours, 50 μL of Cell TiterGlo (Promega, Madison, Wis., USA) reagent is added to each well and plates are incubated at room temperature, in the dark, for 30 minutes. Luminescence is measured on a BioTek Cytation 3. Luminescence values are imported into a template in XLFit (Guildford, Surrey, UK) that uses a four-parameter fit to generate an IC50 value for each compound dilution series on the plate.
`COc1ccc(N2C[C@@H](C)n3c(c(CCCOc4cc(C)c(Cl)c(C)c4)c4ccc(Cl)c(-c5c(C)nn(C)c5C)c43)C2=O)c2c1c(C(=O)O)cn2Cc1cccc(C)n1` [Example 621, (R)-7-(7-chloro-10-(3-(4-chloro-3,5-dimethylphenoxy)propyl)-4-methyl-1-oxo-6-(1,3,5-trimethyl-1H-pyrazol-4-yl)-3,4-dihydropyrazino[1,2-a]indol-2(1H)-yl)-4-methoxy-1-((6-methylpyridin-2-yl)methyl)-1H-indole-3-carboxylic add] gave a GI50 of 390 nM.

Reference: patent publication US11596639B2, “Substituted indole Mcl-1 inhibitors” (Vanderbilt University, priority 2016, dated 2023)
